The numbers were not newly measured in patent US20100233107A1, “MEDICATED TONING LOTION” (priority 2009, published 2010), which cites them from elsewhere.

As for `O=C(O)c1ccccc1O` [salicylic acid], the solubility in water result is on record as “approximately 0.2 % by weight”. In addition, the “volume of water in which one gram dissolves” value (one gram of salicylic acid) was 460 mL.
